Structures are written as SMILES.

The nature of data set [1]: Measurement of migration into the blood (orally administered in vivo absorbability). Also noted: species or system SD male rats. The conditions noted are these: rat, po, 150 umol/kg. Here is the method: Blood was collected from the tail vein 0 minutes (before the administration), 30 minutes, 1 hour, and 3 hours after the administration, and heparin was added thereto. Centrifugation was then performed, and, from the supernatant, heparin plasma samples were prepared. The concentrations of quercetin-glucuronide conjugate and quercetin in the prepared heparin plasma samples were measured by HPLC under the following conditions. AUC (Area under the curve) (0 to 3 hr) (μg/ml·hr) was then calculated based on the area under the curve of the plasma concentration of quercetin-glucuronide conjugate (μg/ml) and the area under the curve of the plasma concentration of quercetin (μg/ml). Quercetin-glucuronide conjugate and quercetin are both in vivo metabolites of isoquercitrin. […] Subsequently, in the same manner as in Experiment 1, plasma was prepared, and the plasma concentration of quercetin-glucuronide conjugate and that of quercetin were measured by HPLC. […] Subsequently, in the same manner as in Experiment 1, plasma was prepared, and the plasma concentration of quercetin-glucuronide conjugate and that of quercetin were measured by HPLC. AUC (Area under the curve) (0 to 3 hr) (μg/ml·hr) was then calculated based on the area under the curve of the plasma concentration of quercetin-glucuronide conjugate (μg/ml) and the area under the curve of the plasma concentration of quercetin (μg/ml). […]

The conditions of data set [2]: in vivo; cited from earlier work.

Take `O=c1c(O[C@@H]2O[C@H](CO)[C@@H](O)[C@H](O)[C@H]2O)c(-c2ccc(O)c(O)c2)oc2cc(O)cc(O)c12` [IQC, quercetin 3-O-μ-D-glucopyranoside]: in data set [1], the “migration into the blood (orally administered in vivo absorbability), AUC (0 to 3 hr) of plasma quercetin-glucuronide conjugate plus quercetin” value is on record as “reduce absorbability”. The absorbability entry in data set [2] was “higher absorbability than quercetin and rutin”.

As to `O=c1c(OC2OC(CO)C(OC3OC(CO)C(O)C(O)C3O)C(O)C2O)c(-c2ccc(O)c(O)c2)oc2cc(O)cc(O)c12` (centres unmarked) [IQC-G1], in data set [1], the “migration into the blood (orally administered in vivo absorbability), AUC (0 to 3 hr) of plasma quercetin-glucuronide conjugate plus quercetin” value is “higher absorbability in this order”.

Turning to `O=c1c(O)c(-c2ccc(O[C@@H]3O[C@H](CO)[C@@H](O)[C@H](O)[C@H]3O)c(O)c2)oc2cc(O)cc(O)c12` [Quercetin-4′-β-D-glucoside], the absorbability entry in data set [2] is “higher absorbability”.

As to `O=c1c(O[C@@H]2O[C@H](CO)[C@@H](O)[C@H](O)[C@H]2O)c(-c2ccc(O[C@@H]3O[C@H](CO)[C@@H](O)[C@H](O)[C@H]3O)c(O)c2)oc2cc(O)cc(O)c12` [Quercetin-3,4′-β-D-glucoside], in data set [2], the absorbability result is “higher absorbability”.
